According to PMC4466200 (Bioorganic & Medicinal Chemistry Letters, 2015):

Experiments:
SARS-CoV or MERS-CoV = conditions: cited from earlier work
other viruses = conditions: needed to inhibit other viruses; cited from earlier work
coronavirus = coronavirus replication in vitro; cited from earlier work
[1] = tested on: MERS-CoV (strain EMC/2012)
[2] = tested on: SARS-CoV (strain Frankfurt-1); format: cell-based
in vitro = conditions: human
HIV-1 = conditions: CD4+ T cells; McGuigan's ProTide technology employed; cited from earlier work
HSV-2 = conditions: CD4+ T cells; McGuigan's ProTide technology employed; cited from earlier work

SMILES: Cc1cn([C@H]2C[C@H](N=[N+]=[N-])[C@@H](CO)O2)c(=O)[nH]c1=O [zidovudine]
- activity against SARS-CoV or MERS-CoV in vitro (in words) (SARS-CoV or MERS-CoV): none of these well known antiviral drugs exhibited any activity

SMILES: Nc1nc(O)c2ncn(COC(CO)CO)c2n1 [ganciclovir]
- activity against SARS-CoV or MERS-CoV in vitro (in words) (SARS-CoV or MERS-CoV): none of these well known antiviral drugs exhibited any activity

SMILES: Nc1ccn([C@@H]2CS[C@H](CO)O2)c(=O)n1 [lamivudine]
- activity against SARS-CoV or MERS-CoV in vitro (in words) (SARS-CoV or MERS-CoV): none of these well known antiviral drugs exhibited any activity

SMILES: NC(=O)c1ncn([C@@H]2O[C@H](CO)[C@@H](O)[C@H]2O)n1 [Ribavirin, ribavirin]
- inhibitory concentration (other viruses): 50 to 100 µg/mL
- inhibitory concentration (coronavirus): 500 to 5000 µg/mL

SMILES: COc1nc(N)ncc1-c1cn(COCCO)cn1 [compound 2]
- block of virus replication (in words) [1]: can block the replication of MERS-CoV
- EC50 [2]: No effect
- block of virus replication (in words) [2]: but not SARS-CoV
- selectivity ratio (in vitro): > 3

SMILES: Nc1nc2c(ncn2COCCO)c(=O)[nH]1 [Acyclovir, acyclovir]
- block of virus replication (in words) [1]: had no effect
- activity against SARS-CoV or MERS-CoV in vitro (in words) (SARS-CoV or MERS-CoV): none of these well known antiviral drugs exhibited any activity
- concentration suppressing replication (HIV-1): 3 to 12 µmol/L
- block of virus replication (in words) [2]: had no effect
- concentration suppressing replication (HSV-2): 3 to 12 µmol/L
